“And” between values parts separate entries of the source, which are not always exact repeats. Identical values can stand only once.

The values below come from BindingDB's records for PubMed 7965765 (University of Cincinnati, 1994).

This test has as its target T1, Thromboxane A2 receptor (Homo sapiens, UniProt P21731).
T1 sequence (P21731 whole entry): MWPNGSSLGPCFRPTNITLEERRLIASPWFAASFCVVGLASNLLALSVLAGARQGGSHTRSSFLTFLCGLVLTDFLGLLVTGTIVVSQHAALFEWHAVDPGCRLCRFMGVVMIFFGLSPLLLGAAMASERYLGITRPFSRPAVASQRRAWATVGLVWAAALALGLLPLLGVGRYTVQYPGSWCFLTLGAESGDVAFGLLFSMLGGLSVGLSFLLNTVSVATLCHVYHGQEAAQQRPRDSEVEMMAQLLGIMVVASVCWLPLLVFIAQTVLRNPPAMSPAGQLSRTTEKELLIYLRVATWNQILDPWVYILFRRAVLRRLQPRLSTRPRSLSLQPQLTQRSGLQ
As to `CCCCC[C@H](O)/C=C/C1[C@@H](C/C=C\CCCC(=O)O)[C@H]2CO[C@@H]1C2` (some centres undefined) [U46619], the Ki is 77 nM and 82 nM and 50 nM.

For `CCCCCC(O)C=CC1C2COC(C2)C1CC=CCCCC(=O)O` (centres undefined) [NSC_114865], the Ki was 64 nM and 44 nM and 38 nM.

For `O=C(O)CCC/C=C\C[C@@H]1[C@@H](/C=C/[C@@H](O)COc2ccc(I)cc2)[C@H]2CC[C@@H]1O2` [CAS_128719-90-4], the Ki was 3.7 nM and 1.4 nM.

In the case of `CC1(C)C2CC(NCC(O)Cc3ccc(O)c(I)c3)C(CC=CCCCC(=O)O)C1C2` (centres undefined) [NSC_122979], the inhibitory constant (Ki) was 117 nM and 400 nM and 121 nM.

Broadly, the Ki is the equilibrium dissociation constant of an inhibitor or competing ligand from its target. Low readings indicate a stronger hold on the target, high ones a looser hold on the target.
